By IC50 is commonly meant the concentration that inhibits the measured activity by half.

The record followed here is patent US8563542B2 (Cyclacel Limited, priority 2007, dated 2013).

Assay [1] concerns the target T1, AA (Homo sapiens, UniProt O14965).
T1 sequence (O14965 1-403): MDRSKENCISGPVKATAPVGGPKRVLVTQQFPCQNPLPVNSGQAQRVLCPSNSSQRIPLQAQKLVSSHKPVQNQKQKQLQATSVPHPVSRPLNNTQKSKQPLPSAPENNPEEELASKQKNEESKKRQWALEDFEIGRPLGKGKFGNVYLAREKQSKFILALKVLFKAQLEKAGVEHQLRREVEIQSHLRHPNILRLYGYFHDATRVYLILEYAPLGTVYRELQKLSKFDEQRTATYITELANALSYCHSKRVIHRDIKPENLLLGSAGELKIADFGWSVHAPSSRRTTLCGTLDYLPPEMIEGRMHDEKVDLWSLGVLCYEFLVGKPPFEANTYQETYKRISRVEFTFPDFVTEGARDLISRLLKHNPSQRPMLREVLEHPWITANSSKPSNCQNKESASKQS
Nature of the assay: AA IC50 (Table 1; no method given). The note with it: Table 2, AurA IC50; class symbols; read-out: AurA IC50. The format is biochemical.

In assay [2] the target is PLK1 (Homo sapiens, UniProt P53350). The assay is described as follows: PLK1 protein kinase assay (CDC25C phosphorylation, [γ-32P]-ATP). The format is biochemical. The conditions noted are these: Table 2, PLK1 IC50; class symbols; read-out: PLK1 IC50.
Chain of PLK1 (P53350 whole entry): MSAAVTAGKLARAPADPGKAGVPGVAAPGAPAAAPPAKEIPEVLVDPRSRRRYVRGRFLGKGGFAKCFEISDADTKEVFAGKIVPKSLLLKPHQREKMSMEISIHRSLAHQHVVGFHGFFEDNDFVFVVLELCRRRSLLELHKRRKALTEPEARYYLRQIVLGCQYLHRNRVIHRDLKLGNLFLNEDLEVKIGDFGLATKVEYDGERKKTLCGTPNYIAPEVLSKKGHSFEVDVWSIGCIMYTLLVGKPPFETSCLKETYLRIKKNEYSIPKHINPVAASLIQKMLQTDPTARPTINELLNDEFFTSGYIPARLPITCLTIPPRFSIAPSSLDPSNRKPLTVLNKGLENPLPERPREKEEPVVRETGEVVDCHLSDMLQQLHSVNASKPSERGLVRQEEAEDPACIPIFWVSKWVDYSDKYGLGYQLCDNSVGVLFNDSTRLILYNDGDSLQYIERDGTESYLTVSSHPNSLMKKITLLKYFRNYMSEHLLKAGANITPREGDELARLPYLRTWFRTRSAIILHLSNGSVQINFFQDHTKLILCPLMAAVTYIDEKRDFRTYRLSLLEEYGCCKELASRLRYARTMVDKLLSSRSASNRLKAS

As to `COc1cc(C(N)=O)ccc1Nc1ncc2c(n1)N(C1CCCC1)CCC(=O)N2C` [compound 89, 4-(9-Cyclopentyl-5-methyl-6-oxo-6,7,8,9-tetrahydro-5H-pyrimido[4,5-b][1,4]diazepin-2-ylamino)-3-methoxy-benzamide], the values for the IC50 in assay [1] and in assay [2] were less than 10 µM and less than 0.1 µM, respectively.

In the case of `CC(=O)NCc1cccc(Nc2ncc3c(n2)N(C2CCCC2)CCC(=O)N3C)c1` [compound 90, N-[3-(9-Cyclopentyl-5-methyl-6-oxo-6,7,8,9-tetrahydro-5H-pyrimido[4,5-b][1,4]diazepin-2-ylamino)-benzyl]-acetamide], the IC50 is less than 1 µM in assay [1] and less than 10 µM in assay [2].

Turning to `CN1C(=O)CCN(C2CCCC2)c2nc(Nc3cccc(CN)c3)ncc21` [compound 91, 2-(3-Aminomethyl-phenylamino)-9-cyclopentyl-5-methyl-5,7,8,9-tetrahydro-pyrimido[4,5-b][1,4]diazepin-6-one], the IC50 was less than 1 µM in assay [1] and less than 10 µM in assay [2].

Regarding `CN1C(=O)CCN(C2CCCC2)c2nc(Nc3ccc(S(=O)(=O)NCc4ccccc4)cc3)ncc21` [compound 93, N-Benzyl-4-(9-cyclopentyl-5-methyl-6-oxo-6,7,8,9-tetrahydro-5H-pyrimido[4,5-b][1,4]diazepin-2-ylamino)-benzenesulfonamide], the IC50 in assay [1] was less than 0.1 µM; in assay [2], less than 10 µM.

`CNS(=O)(=O)c1ccc(Nc2ncc3c(n2)N(C2CCCC2)CCC(=O)N3C)cc1` [compound 96, 4-(9-Cyclopentyl-5-methyl-6-oxo-6,7,8,9-tetrahydro-5H-pyrimido[4,5-b][1,4]diazepin-2-ylamino)-N-methyl-benzenesulfonamide]: the IC50 in assay [1] was less than 0.1 µM; in assay [2] it was less than 10 µM.

On to `CC(=O)N(C)S(=O)(=O)c1ccc(Nc2ncc3c(n2)N(C2CCCC2)CCC(=O)N3C)cc1` [compound 97, N-Acetyl-4-(9-cyclopentyl-5-methyl-6-oxo-6,7,8,9-tetrahydro-5H-pyrimido[4,5-b][1,4]diazepin-2-ylamino)-N-methyl-benzenesulfonamide], for which the IC50 in assay [1] was less than 0.1 µM; in assay [2], less than 10 µM.

With `CN1CCC(NS(=O)(=O)c2cccc(Nc3ncc4c(n3)N(C3CCCC3)CCC(=O)N4C)c2)CC1` [compound 103, 3-(9-Cyclopentyl-5-methyl-6-oxo-6,7,8,9-tetrahydro-5H-pyrimido[4,5-b][1,4]diazepin-2-ylamino)-N-(1-methyl-piperidin-4-yl)-benzenesulfonamide], the figures for the IC50 in assay [1] and in assay [2] were less than 1 µM and less than 10 µM, respectively.

`COCCNS(=O)(=O)c1ccc(Nc2ncc3c(n2)N(C2CCCC2)CCC(=O)N3C)cc1` [compound 104, 4-(9-Cyclopentyl-5-methyl-6-oxo-6,7,8,9-tetrahydro-5H-pyrimido[4,5-b][1,4]diazepin-2-ylamino)-N-(2-methoxy-ethyl)-benzenesulfonamide]: the IC50 is less than 0.1 µM in assay [1] and less than 10 µM in assay [2].

For the compound `COCCNS(=O)(=O)c1cccc(Nc2ncc3c(n2)N(C2CCCC2)CCC(=O)N3C)c1` [compound 108, 3-(9-Cyclopentyl-5-methyl-6-oxo-6,7,8,9-tetrahydro-5H-pyrimido[4,5-b][1,4]diazepin-2-ylamino)-N-(2-methoxy-ethyl)-benzenesulfonamide], the figures for the IC50 in assay [1] and in assay [2] were less than 1 µM and less than 10 µM, respectively.

With `CN1C(=O)CCN(C2CCCC2)c2nc(Nc3cccc(S(=O)(=O)N4CCCC4)c3)ncc21` [compound 109, 9-Cyclopentyl-5-methyl-2-[3-(pyrrolidine-1-sulfonyl)-phenylamino]-5,7,8,9-tetrahydro-pyrimido[4,5-b][1,4]diazepin-6-one], the IC50 in assay [1] and in assay [2] was less than 1 µM in each case.

As to `CN1C(=O)CCN(C2CCCC2)c2nc(Nc3cccc(S(=O)(=O)NCc4ccccc4)c3)ncc21` [compound 110, N-Benzyl-3-(9-cyclopentyl-5-methyl-6-oxo-6,7,8,9-tetrahydro-5H-pyrimido[4,5-b][1,4]diazepin-2-ylamino)-benzenesulfonamide], the IC50 in assay [1] is less than 1 µM; in assay [2], less than 10 µM.

In the case of `CC(C)N1CCC(=O)N(C)c2cnc(Nc3ccc4c(c3)CS(=O)(=O)C4)nc21` [compound 115, 2-(2,2-Dioxo-2,3-dihydro-1H-2lambda*6*- benzo[c]thiophen-5-ylamino)-9-isopropyl-5-methyl-5,7,8,9-tetrahydro-pyrimido[4,5-b][1,4]diazepin-6-one], the IC50 in assay [1] is less than 0.1 µM; in assay [2] it was less than 10 µM.

Regarding `CN1C(=O)C2(CCC2)CN(C2CCCC2)c2nc(Nc3ccc4c(c3)CS(=O)(=O)C4)ncc21` [compound 117, (9-Cyclopentyl-2-(2,2-dioxo-2,3-dihydro-1H-2lambda*6*-benzo[c]thiophen-5-ylamino)5-methyl-6-oxo-6,7,8,9-tetrahydro-5H-spiro[pyrimido[4,5-b][1,4]diazepin-3,1′-cyclobutane+], the IC50 in assay [1] and in assay [2] was less than 1 µM each time.

With `C=CCN1CCC(=O)N(C)c2cnc(Nc3ccc4c(c3)CS(=O)(=O)C4)nc21` [compound 119, 9-Allyl-2-(2,2-dioxo-2,3-dihydro-1H-2lambda*6*-benzo[c]thiophen-5-ylamino)-5-methyl-5,7,8,9-tetrahydro-pyrimido[4,5-b][1,4]diazepin-6-one], the IC50 in assay [1] was less than 0.1 µM; in assay [2], less than 10 µM.

As to `CN1C(=O)CCN(C2CCCC2)c2nc(Nc3ccc(Cl)cc3)ncc21` [compound 123, 2-(4-Chloro-phenylamino)-9-cyclopentyl-5-methyl-5,7,8,9-tetrahydro-pyrimido[4,5-b][1,4]diazepin-6-one], the IC50 in assay [1] and in assay [2] was less than 1 µM each time.

As to `CN1C(=O)CCN(C2CCCC2)c2nc(NCc3ccco3)ncc21` [compound 124, 9-Cyclopentyl-2-[(furan-2-ylmethyl)-amino]-5-methyl-5,7,8,9-tetrahydro-pyrimido[4,5-b][1,4]diazepin-6-one], the IC50 in assay [1] and in assay [2] was less than 10 µM throughout.

`Cc1cc2cc(Nc3ncc4c(n3)N(C3CCCC3)CCC(=O)N4C)ccc2[nH]1` [compound 125, 9-Cyclopentyl-5-methyl-2-(2-methyl-1H-indol-5-ylamino)-5,7,8,9-tetrahydro-pyrimido[4,5-b][1,4]diazepin-6-one]: the IC50 in assay [1] is less than 0.1 µM; in assay [2] it was less than 1 µM.

Consider `CN1C(=O)CCN(C2CCCC2)c2nc(NCc3cccc4c3OCCO4)ncc21` [compound 128, 9-Cyclopentyl-2-[(2,3-dihydro-benzo[1,4]dioxin-5-ylmethyl)-amino]-5-methyl-5,7,8,9-tetrahydro-pyrimido[4,5-b][1,4]diazepin-6-one], for which the IC50 in assay [1] is less than 10 µM; in assay [2] it was less than 1 µM.

Regarding `CN1C(=O)CCN(C2CCCC2)c2nc(Nc3ccc4cc[nH]c4c3)ncc21` [compound 130, 9-Cyclopentyl-2-(1H-indo1-6-ylamino)-5-methyl-5,7,8,9-tetrahydro-pyrimido[4,5-b][1,4]diazepin-6-one], the IC50 was less than 1 µM in assay [1] and less than 10 µM in assay [2].

`CN1C(=O)CCN(C2CCCC2)c2nc(NCc3ccc(-c4csnn4)cc3)ncc21` [compound 132, 9-Cyclopentyl-5-methyl-2-(4-[1,2,3]thiadiazol-4-yl-benzylamino)-5,7,8,9-tetrahydro-pyrimido[4,5-b][1,4]diazepin-6-one]: the IC50 in assay [1] and in assay [2] was less than 10 µM throughout.
